Read-outs that look alike come from different tables or passages of the source.
Legend:
[1] = test system: subjects suffering from the Insomnia Disorder adult insomnia; type: in vivo, human
Method: Following the evening-time dosing with study drug, subjects underwent eight hours of continuous PSG recording. Next-day residual effects were assessed by the DSST and the KSS evaluation, collected in that order, starting at approximately 30 minutes after “lights-on.” All tests were administered in the clinical unit, beginning 30 minutes after lights-on and periodically thereafter for approximately 16 hours post-lights-off, following completion of PSG recording. Each subject also completed a post-sleep questionnaire once after lights-on so that subjective impressions could be assessed about the “quality” and “quantity” of their sleep. Before the second night dosing in each dosing period, subjects were evaluated for any residual sleepiness. […] Subjects remained in the clinic until residual symptoms were minimized.
The well-known KSS measures, subjectively, the level of a subject's sleepiness at a specific time of the day and was therefore useful as another indication of next day residual effects, if any. The KSS comprised a 9-step scale (ranging from, e.g., “extremely alert” (assigned 1 point) to alert (assigned 3 points) to “neither sleepy nor alert” (assigned 5 points) to “sleepy” (assigned 7 points) to “extremely sleepy” (assigned 9 points)) that characterized sleepiness at a particular time during the day (within 5 minutes of the assessment).
In a paper-and-pencil evaluation, each subject checked a box corresponding to the point of the scale that best characterized their state of drowsiness experienced during the preceding 5 minutes. The KSS evaluation followed the DSST after each night of the baseline visit (Visit 2) and after each night of Dosing Periods 1-5 according to the schedule set out in the previous example.
The KSS evaluation results shown, other than for the baseline, are the mean results obtained from the KSS evaluation scores following all nights of Dosing Periods 1-5 for the indicated dose. The KSS evaluation results for the baseline are the mean results obtained following the first and second nights of the baseline visit. Note that for clarity of display purposes, in FIG. 7 many of the test results at each time period, e.g., at approximately ½ hour after lights-on/9 hours post-dosing, were staggered arbitrarily away from the actual time when the test was conducted.

clinical = type: in vivo, human; settings: for mean fraction of dose excreted unchanged in urine over 48 hours (Fe48): day 1; for mean fraction of dose excreted unchanged in urine over 24 hours (Fe24): day 16
[2] = test system: subjects suffering from the Insomnia Disorder adult insomnia; type: in vivo, human; settings: for mean change in DSST score net of placebo, compared with suvorexant: about 9 hours after administration, vs 10, 20 and 40 mg suvorexant, FIG. 11
Method: Literature data for indications of sleep efficacy and attendant residual effects after suvorexant administration, orally administered as BELSOMRA tablets at a single dose of 10 mg, 20 mg, and 40 mg, was available. Literature data for indications of sleep efficacy after zolpidem administration, orally administered as AMBIEN CR tablets, i.e., an extended-release tablet comprising the tartrate salt, in a single dose of 12.5 mg was also available. […] Additionally, the data shown in FIG. 8 through FIG. 11 are for the treatment effect net of placebo.

[3] = test system: healthy, non-dependent, recreational sedative users; assay: Human abuse potential study, adverse events and tolerability; type: in vivo; settings: for Amnesia / Ataxia / Diplopia / Dizziness / Euphoric mood / Headache / Hiccups / Nausea / Somnolence / Vision blurred: N = 50
Method: Adverse events were coded to MedDRA terms. Data for AEs were analyzed using the treatment-emergent signs and symptoms (TESS) philosophy. Treatment-emergent signs and symptoms are defined as AEs that: • Emerge during treatment, having been absent at pretreatment; or • Reemerge during treatment, having been present at pretreatment but stopped prior to treatment; or • Worsen in intensity during treatment relative to the pretreatment state, when the AE is continuous.
Subjects were counted only once in the incidence count for a specific MedDRA Preferred Term, although a MedDRA Preferred Term might be reported more than once for a particular subject. Separate summaries will be provided for Treatment-emergent AEs (“TEAEs”) by maximum intensity (mild, moderate, severe) and relationship (yes, no) to study drug. A TEAE was considered related to study drug if the investigator reported the event to be “definitely, probably, possibly, or unlikely” related to treatment on the CRF.

Compound: O=C(O)c1nc2ccccc2n([C@H]2C[C@H]3CCC[C@@H](C2)N3C2CC3CCCC(C3)C2)c1=O (stereo partly shown) [Compound (1C)]
- next day residual effects by mean KSS evaluation results vs placebo ([1]; 0.5 mg, about 9 to about 16 hours post-dosing): no next day residual effects
- next day residual effects by mean KSS evaluation results vs placebo ([1]; 1.0 mg, about 9 to about 16 hours post-dosing): no next day residual effects
- next day residual effects by mean KSS evaluation results vs placebo ([1]; 3.0 mg, each of the testing times): some next day residual effects
- next day residual effects by mean KSS evaluation results vs placebo ([1]; 6.0 mg, each of the testing times): some next day residual effects
- mean fraction of dose excreted unchanged in urine over 48 hours (Fe48) (clinical; 0.6 mg): 96%
- mean fraction of dose excreted unchanged in urine over 24 hours (Fe24) (clinical; 0.6 mg): 90%
- mean fraction of dose excreted unchanged in urine over 48 hours (Fe48) (clinical; 2 mg): 100%
- mean fraction of dose excreted unchanged in urine over 24 hours (Fe24) (clinical; 2 mg): 102%
- mean fraction of dose excreted unchanged in urine over 48 hours (Fe48) (clinical; 10 mg): 84%
- mean fraction of dose excreted unchanged in urine over 24 hours (Fe24) (clinical; 10 mg): 81%
- time of urinary excretion of most of the unchanged compound (clinical; across the dose range, days 1 and 16): during the first 8 hours
- CL renal (clinical; human, in vivo, all dose levels, days 1 and 16, read-out: mean CLr): 274 to 354 mL/min
- mean improvement in WASO net of placebo, compared with suvorexant ([2]; 0.5 mg Compound (1C) vs 10 mg or 20 mg suvorexant, Night 1, FIG. 9): nearly comparable to
- mean improvement in WASO net of placebo, compared with zolpidem ([2]; 0.5 mg Compound (1C) vs 12.5 mg zolpidem, Night 1, FIG. 9): far greater than
- mean change in DSST score net of placebo, compared with suvorexant ([2]; 0.5 mg): small and comparable
- mean improvement in SE net of placebo, compared with suvorexant ([2]; 1.0 mg Compound (1C) vs 10 mg suvorexant, Night 1, FIG. 8): greater than
- mean improvement in SE net of placebo, compared with zolpidem ([2]; 1.0 mg Compound (1C) vs 12.5 mg zolpidem, Night 1, FIG. 8): greater than
- mean improvement in WASO net of placebo, compared with suvorexant ([2]; 1.0 mg Compound (1C) vs 40 mg suvorexant, Night 1, FIG. 9): nearly comparable to
- mean change in DSST score net of placebo, compared with suvorexant ([2]; 1.0 mg): small and comparable
- mean improvement in LPS net of placebo, compared with suvorexant ([2]; 6.0 mg Compound (1C) vs 10 mg suvorexant, Night 1, FIG. 10): comparable to
- mean improvement in SE net of placebo, compared with suvorexant ([2]; 6.0 mg Compound (1C) vs 40 mg suvorexant, Night 1, FIG. 8): comparable to
- mean improvement in LPS net of placebo, compared with suvorexant or zolpidem ([2]; up to 6.0 mg Compound (1C) vs 20 mg suvorexant or 12.5 mg zolpidem, Night 1, FIG. 10): not as great as
- AE profile compared with triazolam ([3]; 1 mg): more preferable AE profile than triazolam
- Amnesia ([3]; 1 mg): 0 n (%)
- Ataxia ([3]; 1 mg): 1 (2) n (%)
- Diplopia ([3]; 1 mg): 0 n (%)
- Dizziness ([3]; 1 mg): 2 (4) n (%)
- Euphoric mood ([3]; 1 mg): 0 n (%)
- Headache ([3]; 1 mg): 5 (10) n (%)
- Hiccups ([3]; 1 mg): 0 n (%)
- Nausea ([3]; 1 mg): 1 (2) n (%)
- Somnolence ([3]; 1 mg): 20 (40) n (%)
- Vision blurred ([3]; 1 mg): 0 n (%)
- AE profile compared with triazolam ([3]; 6 mg): AE profile than triazolam, and Compound (1C) at 6 and 10 mg doses had similar profiles as triazolam
- certain AE results (ataxia, hiccups, amnesia, diplopia) compared with triazolam at therapeutic doses ([3]; 6 mg (supratherapeutic dose)): superior to triazolam
- Amnesia ([3]; 6 mg): 0 n (%)
- Ataxia ([3]; 6 mg): 7 (14) n (%)
- Diplopia ([3]; 6 mg): 0 n (%)
- Dizziness ([3]; 6 mg): 3 (6) n (%)
- Euphoric mood ([3]; 6 mg): 1 (2) n (%)
- Headache ([3]; 6 mg): 2 (4) n (%)
- Hiccups ([3]; 6 mg): 0 n (%)
- Nausea ([3]; 6 mg): 2 (4) n (%)
- Somnolence ([3]; 6 mg): 45 (90) n (%)
- Vision blurred ([3]; 6 mg): 2 (4) n (%)
- AE profile compared with triazolam ([3]; 10 mg): AE profile than triazolam, and Compound (1C) at 6 and 10 mg doses had similar profiles as triazolam
- certain AE results (ataxia, hiccups, amnesia, diplopia) compared with triazolam at therapeutic doses ([3]; 10 mg (supratherapeutic dose)): superior to triazolam
- Amnesia ([3]; 10 mg): 0 n (%)
- Ataxia ([3]; 10 mg): 13 (26) n (%)
- Diplopia ([3]; 10 mg): 2 (4) n (%)
- Dizziness ([3]; 10 mg): 5 (10) n (%)
- Euphoric mood ([3]; 10 mg): 1 (2) n (%)
- Headache ([3]; 10 mg): 2 (4) n (%)
- Hiccups ([3]; 10 mg): 0 n (%)
- Nausea ([3]; 10 mg): 2 (4) n (%)
- Somnolence ([3]; 10 mg): 47 (94) n (%)
- Vision blurred ([3]; 10 mg): 3 (6) n (%)
- safety and tolerability ([3]; doses 1, 6 and 10 mg): well tolerated

Source: patent publication US11576913B2 (priority 2018, dated 2023)
